Laboratory results published in patent US8440684B2, “Polycyclic pyrrolidine-2,5-dione derivatives as -formyl peptide receptor like-1 (FPRL-1) receptor modulators” (Allergan, Inc., priority 2011, dated 2013).
pEC50: −log10 of the molar value.

Target: T1, FPRL1 (Homo sapiens, UniProt P25090)
T1 construct: expressed in transfected cells
T1 sequence (P25090 1-351): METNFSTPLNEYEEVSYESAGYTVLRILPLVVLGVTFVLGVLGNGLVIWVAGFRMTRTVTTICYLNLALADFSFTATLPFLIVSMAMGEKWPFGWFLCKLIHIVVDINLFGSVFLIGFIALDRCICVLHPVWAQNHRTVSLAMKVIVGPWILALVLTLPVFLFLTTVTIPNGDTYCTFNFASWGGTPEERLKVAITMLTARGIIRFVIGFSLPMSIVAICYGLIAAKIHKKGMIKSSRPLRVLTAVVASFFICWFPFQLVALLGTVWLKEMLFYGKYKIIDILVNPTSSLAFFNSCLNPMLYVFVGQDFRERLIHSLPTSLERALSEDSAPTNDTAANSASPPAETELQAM
Assay: compound-induced calcium activity on FLIPR Tetra in CHO-Ga16 cells stably expressing FPRL1
Format: cell-based
Conditions: for FPRL1 (rel. eff.): relative efficacy; for pEC50: tested 0.61 to 10,000 nM
Method: CHO-Ga16 cells stably expressing FPRL1 were cultured in (F12, 10% FBS, 1% PSA, 400 μg/ml geneticin and 50 μg/ml hygromycin) and HEK-Gqi5 cells stable expressing FPR1 were cultured in (DMEM high glucose, 10% FBS, 1% PSA, 400 μg/ml geneticin and 50 μg/ml hygromycin). In general, the day before the experiment, 18,000 cells/well were plated in a 384-well clear bottom poly-d-lysine coated plate. The following day the screening compound-induced calcium activity was assayed on the FLIPR^Tetra. The drug plates were prepared in 384-well microplates using the EP3 and the MultiPROBE robotic liquid handling systems. Compounds were tested at concentrations ranging from 0.61 to 10,000 nM. Results are expressed as EC50 (nM) and efficacy values.

Row | SMILES | FPRL1 (rel. eff.) | pEC50
1 | CS(=O)(=O)c1ccc(NC(=O)CN2C(=O)C3C(C2=O)C2CCC3C23CC3)cc1 (stereo not shown) [Compound 4, 2-(1,3-dioxooctahydro-2H-spiro[2-aza-4,7-methanoisoindole-8,1′-cyclopropan]-2-yl)-N-[4-(methylsulfonyl)phenyl]acetamide] | (0.72) | 5.46
2 | CCc1ccc(NC(=O)CN2C(=O)C3C(C2=O)C2CCC3C23CC3)cc1 (stereo not shown) [Compound 6, 2-(1,3-dioxooctahydro-2H-spiro[2-aza-4,7-methanoisoindole-8,1′-cyclopropan]-2-yl)-N-(4-ethylphenyl)acetamide] | (0.91) | 5.94
3 | CC(=O)c1ccc(NC(=O)CN2C(=O)C3C(C2=O)C2CCC3C23CC3)cc1 (stereo not shown) [Compound 7, N-(4-acetylphenyl)-2-(1,3-dioxooctahydro-2H-spiro[2-aza-4,7-methanoisoindole-8,1′-cyclopropan]-2-yl)acetamide] | (0.63) | 5.11
4 | O=C(CN1C(=O)C2C(C1=O)C1CCC2C12CC2)Nc1ccc(Cl)nc1 (stereo not shown) [Compound 8, N-(6-chloropyridin-3-yl)-2-(1,3-dioxooctahydro-2H-spiro[2-aza-4,7-methanoisoindole-8,1′-cyclopropan]-2-yl)acetamide] | (0.86) | 5.60
5 | COc1ccc(NC(=O)CN2C(=O)C3C(C2=O)C2CCC3C23CC3)cc1 (stereo not shown) [Compound 10, 2-(1,3-dioxooctahydro-2H-spiro[2-aza-4,7-methanoisoindole-8,1′-cyclopropan]-2-yl)-N-(4-methoxyphenyl)acetamide] | (1.0) | 6.57
6 | CC(C(=O)Nc1ccc(Br)cc1)N1C(=O)C2C(C1=O)C1CCC2C12CC2 (stereo not shown) [Compound 11, N-(4-bromophenyl)-2-(1,3-dioxooctahydro-2H-spiro[2-aza-4,7-methanoisoindole-8,1′-cyclopropan]-2-yl)propanamide] | (0.93) | < 5.30
7 | O=C(CN1C(=O)C2C(C1=O)C1C=CC2C12CC2)Nc1ccc(Br)cc1 (stereo not shown) [Compound 12, N-(4-bromophenyl)-2-(1,3-dioxo-1,3,3a,4,7,7a-hexahydro-2H-spiro[2-aza-4,7-methanoisoindole-8,1′-cyclopropan]-2-yl)acetamide] | (0.91) | 6.09
8 | O=C(CN1C(=O)C2CC=CCC2C1=O)Nc1ccc(Br)cc1 (stereo not shown) [N-(4-bromophenyl)-1,3,3a,4,7,7a-hexahydro-1,3-dioxo-2H-isoindole-2-acetamide, reference compound] | (0.98) | 6.40
9 | O=C(CN1C(=O)C2C3C=CC(C3)C2C1=O)Nc1ccc(Br)cc1 (stereo not shown) [N-(4-bromophenyl)-1,3,3a,4,7,7a-hexahydro-1,3-dioxo-4,7-methano-2H-isoindole-2-acetamide, reference compound] | (0.90) | 6.24

Further lines, results first:

Row | FPRL1 (rel. eff.) | pEC50 | SMILES
10 | (0.9) | 6.93 | O=C(CN1C(=O)C2C(C1=O)C1CCC2C12CC2)Nc1ccc(Br)cc1 (stereo not shown) [Compound 1, N-(4-Bromophenyl)-2-(1,3-dioxooctahydro-2H-spiro[2-aza-4,7-methanoisoindole-8,1′-cyclopropan]-2-yl)acetamide]
11 | (1.0) | 6.47 | CSc1ccc(NC(=O)CN2C(=O)C3C(C2=O)C2CCC3C23CC3)cc1 (stereo not shown) [Compound 2, 2-(1,3-dioxooctahydro-2H-spiro[2-aza-4,7-methanoisoindole-8,1′-cyclopropan]-2-yl)-N-[4-(methylthio)phenyl]acetamide]
12 | (1.0) | 5.69 | O=C(CN1C(=O)C2C(C1=O)C1CCC2C12CC2)Nc1ccc(Cl)cc1 (stereo not shown) [Compound 3, N-(4-chlorophenyl)-2-(1,3-dioxooctahydro-2H-spiro[2-aza-4,7-methanoisoindole-8,1′-cyclopropan]-2-yl)acetamide]
13 | (0.86) | 5.58 | O=C(CN1C(=O)C2C(C1=O)C1CCC2C12CC2)Nc1ccc(I)cc1 (stereo not shown) [Compound 5, 2-(1,3-dioxooctahydro-2H-spiro[2-aza-4,7-methanoisoindole-8,1′-cyclopropan]-2-yl)-N-(4-iodophenyl)acetamide]
14 | (0.9) | 5.63 | O=C(CN1C(=O)C2C(C1=O)C1CCC2C12CC2)Nc1ccc(F)cc1 (stereo not shown) [Compound 9, 2-(1,3-dioxooctahydro-2H-spiro[2-aza-4,7-methanoisoindole-8,1′-cyclopropan]-2-yl)-N-(4-fluorophenyl)acetamide]
